{"source": "patent US5889147A", "about": "(University of Utah Research Foundation, priority 1997, dated 1999)", "key": {"mice [1]": {"test_system": "mice", "conditions": "mouse, in vivo"}, "serotonin 5HT3 receptor": {"biological_target": "T1, serotonin 5HT3 receptor (Homo sapiens, UniProt P46098)", "T1 sequence (P46098 24-478)": "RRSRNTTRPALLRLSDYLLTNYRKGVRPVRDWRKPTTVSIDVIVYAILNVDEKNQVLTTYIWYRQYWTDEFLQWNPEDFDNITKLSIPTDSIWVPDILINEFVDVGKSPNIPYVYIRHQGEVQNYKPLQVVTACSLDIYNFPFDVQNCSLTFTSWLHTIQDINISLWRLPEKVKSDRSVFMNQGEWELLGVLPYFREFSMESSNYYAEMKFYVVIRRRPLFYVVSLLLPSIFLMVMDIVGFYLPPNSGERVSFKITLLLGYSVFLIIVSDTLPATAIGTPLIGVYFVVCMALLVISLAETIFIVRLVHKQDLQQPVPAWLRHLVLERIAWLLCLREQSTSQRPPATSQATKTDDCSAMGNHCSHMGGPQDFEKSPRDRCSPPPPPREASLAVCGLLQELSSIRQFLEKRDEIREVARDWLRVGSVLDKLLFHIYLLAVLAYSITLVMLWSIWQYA"}, "mice [2]": {"test_system": "mice", "conditions": "mouse"}, "[3]": {"test_system": "Frings audiogenic seizure susceptible mice", "conditions": "mouse, in vivo"}, "CF No. 1 mice": {"test_system": "CF No. 1 mice", "conditions": "mouse, in vivo, sc"}}, "note": "Entries after “also recorded” stand apart in the source; their conditions may differ. Positions of bridges follow the written chain, without caps; N, C: chain ends. Non-standard residues stand in square brackets, D forms with d. Residues, ends and D or L forms follow the SMILES beside them. Trp(6-Br) = N[C@@H](Cc1c[nH]c2cc(Br)ccc12)C(=O)O; Hyp = O=C(O)[C@@H]1C[C@@H](O)CN1"}
{"compound": "NCC(=O)N[C@H]1CSSC[C@@H](C(N)=O)NC(=O)[C@H](Cc2c[nH]c3cc(Br)ccc23)NC(=O)[C@@H]2CCCN2C(=O)[C@H](CCC(=O)O)NC(=O)[C@@H](Cc2c[nH]c3ccccc23)NC(=O)[C@@H]2C[C@@H](O)CN2C1=O", "note": "[bromocontryphan, GCX1 X2 EPX5 C--NH2, X1 is Hyp, X2 is D-Trp and X5 is 6-bromo-L-Trp] (H-GC[Hyp][dW]EP[Trp(6-Br)]C-NH2; disulfide 2-8)", "values": [{"measurement": "biological activity in mammalian systems, compared with contryphan R and des[Gly1]contryphan R", "setting": "mice [1]", "value": "very similar to the spectrum of activity previously observed for both contryphan R and des[Gly^1 ]contryphan R"}]}
{"compound": "Gly-Cys-Thr-Arg-Thr-Cys-Gly-Gly-Xaa1 -Lys-Cys-Thr-Gly-Thr-Cys-Thr-Cys-Thr-Asn-Ser-Ser-Lys-Cys-Gly-Cys-Arg-Tyr-Asn-Val-His-Pro-Ser-Gly-Xaa2 -Gly-Cys-Gly-Cys-Ala-Cys-Ser, where Xaa1 is Hyp and Xaa2 is 6-bromo-L-tryptophan [sigma conotoxin]", "values": [{"measurement": "receptor targeted", "setting": "serotonin 5HT3 receptor", "value": "targets the serotonin 5HT3 receptor"}]}
{"compound": "Xaa1 -Ala-Thr-Ile-Asp-Xaa2 -Cys-Xaa2-Xaa2 -Thr-Cys-Asn-Val-Thr-Phe-Lys-Thr-Cys-Cys-Gly-Xaa3-Xaa3-Gly-Asp-Trp-Gln-Cys-Val-Xaa2-Ala-Cys-Pro-Val-OH, where Xaa3 =hydroxyproline, Xaa2 =Gla and Xaa1 =bromotryptophan [Bromosleeper Peptide]", "values": [{"measurement": "in vivo effect in very young (<2 weeks old) and older (>3 weeks old) mice", "setting": "mice [2]", "value": "induced sleep in mice of both age groups"}, {"measurement": "Observed Effects in Mice: lethargic/drowsy after (onset time)", "setting": "mice [2]; in vivo", "value": "≈ 15 min; also recorded: ≈ 19 min; also recorded: ≈ 11 min"}, {"measurement": "dependence of potency on the age of the mice", "setting": "mice [2]; in vivo", "value": "more potent in 9-day-old mice than in the older mice"}, {"measurement": "anticonvulsant activity", "setting": "[3]", "value": "seen to have activity in this model"}, {"measurement": "anticonvulsant activity", "setting": "CF No. 1 mice", "value": "found to have anticonvulsant activity"}]}
